According to patent publication US12281081B2, “Herbicidal compounds” (SYNGENTA CROP PROTECTION AG, priority 2019, dated 2025):

What was measured:
[1] = test system: Alopecurus myosuroides (ALOMY); assay: Post-emergence herbicidal glasshouse test; assay type: in vivo; settings: 250 g/Ha, evaluated after 13 days
Source text: (§1) Compounds are applied at 250 g/h. […] NT=not tested.

[2] = test system: Lolium perenne (LOLPE); assay: Post-emergence herbicidal glasshouse test; assay type: in vivo; settings: 250 g/Ha, evaluated after 13 days
Source text: as §1

[3] = test system: Echinochloa crus-galli (ECHCG); assay: Post-emergence herbicidal glasshouse test; assay type: in vivo; settings: 250 g/Ha, evaluated after 13 days
Source text: as §1

[4] = test system: Avena fatua (AVEFA); assay: Post-emergence herbicidal glasshouse test; assay type: in vivo; settings: 250 g/Ha, evaluated after 13 days
Source text: as §1

[5] = test system: Setaria faberi (SETFA); assay: Post-emergence herbicidal glasshouse test; assay type: in vivo; settings: 250 g/Ha, evaluated after 13 days
Source text: as §1

[6] = test system: barley crop plants; assay: Crop phytotoxicity comparison, post-emergence
[7] = test system: wheat crop plants; assay: Crop phytotoxicity comparison, post-emergence
[8] = test system: Alopecurus myosuroides (ALOMY); assay: Pre-emergence herbicidal glasshouse test; assay type: in vivo; settings: 250 g/Ha, evaluated after 13 days
Source text: as §1

[9] = test system: Lolium perenne (LOLPE); assay: Pre-emergence herbicidal glasshouse test; assay type: in vivo; settings: 250 g/Ha, evaluated after 13 days
Source text: as §1

[10] = test system: Echinochloa crus-galli (ECHCG); assay: Pre-emergence herbicidal glasshouse test; assay type: in vivo; settings: 250 g/Ha, evaluated after 13 days
Source text: as §1

[11] = test system: Avena fatua (AVEFA); assay: Pre-emergence herbicidal glasshouse test; assay type: in vivo; settings: 250 g/Ha, evaluated after 13 days
Source text: as §1

[12] = test system: Setaria faberi (SETFA); assay: Pre-emergence herbicidal glasshouse test; assay type: in vivo; settings: 250 g/Ha, evaluated after 13 days
Source text: as §1

CC#Cc1cc(C)c(C2C(=O)CC3(CCN(S(=O)(=O)NC)CC3)CC2=O)c(C)c1 [Compound A3, 9-(2,6-dimethyl-4-prop-1-ynyl-phenyl)-N-methyl-8,10-dioxo-3-azaspiro[5.5]undecane-3-sulfonamide]
percentage damage caused to the plant, ALOMY [1]: 5 (5=80-100%)
percentage damage caused to the plant, LOLPE [2]: 5 (5=80-100%)
percentage damage caused to the plant, ECHCG [3]: 5 (5=80-100%)
percentage damage caused to the plant, AVEFA [4]: 5 (5=80-100%)
percentage damage caused to the plant, SETFA [5]: 5 (5=80-100%)
% phytotoxicity observed, Barley ([6]; rate 30 g/ha): 0%
% phytotoxicity observed, Barley ([6]; rate 60 g/ha): 0%
damage to the barley crop compared to prior art compound C1 ([6]; summary of Table B3): significantly less damaging
% phytotoxicity observed, Wheat ([7]; rate 30 g/ha): 0%
% phytotoxicity observed, Wheat ([7]; rate 60 g/ha): 0%
% phytotoxicity observed, Wheat ([7]; rate 60 g/ha + safener cloquintocet-mexyl (CQC) at 50 g/ha): 0%
damage to the wheat crop compared to prior art compound C1 ([7]; summary of Table B3): significantly less damaging
percentage damage caused to the plant, ALOMY [8]: 5 (5=80-100%)
percentage damage caused to the plant, LOLPE [9]: 5 (5=80-100%)
percentage damage caused to the plant, ECHCG [10]: 5 (5=80-100%)
percentage damage caused to the plant, AVEFA [11]: 5 (5=80-100%)
percentage damage caused to the plant, SETFA [12]: 5 (5=80-100%)
